In patent publication US20230355647A1, “Marker for determining anti-cancer effects of mitochondrial oxidative phosphorylation pathway inhibitor” (NANJING SHIJIANG MEDICINE TECHNOLOGY CO., LTD, priority 2020, published 2023):

Assays:
Type in all cases: cell-based
U-251 MG = test: Cell viability (CellTiter-Glo), U-251 MG; conditions: Homo sapiens; U-251 MG cell line, 3-4 days of culture
Experimental: (§1) Cell viability was detected using the Promega CellTiter-Glo kit, the kit reflected cell viability by directly measuring intracellular ATP content. The inhibitory effect (IC50 value) of Gboxin, a mitochondrial oxidative phosphorylation pathway inhibitor, on different tumor cell lines was tested in the Example. The name, source, and culture condition of each tumor cell line were as follows:
Cell line U-251 MG (ECACC, No. 9063001) was cultured in EMEM medium containing 2 mM glutamine, 1% NEAA, 1 mM sodium pyruvate (NaP) and 10% fetal bovine serum (+P/S).
(§2) The above tumor cells were cultured in the relevant medium (+P/S), and incubated for 3 h, then the gradient diluted Gboxin was added, and IC50 (50% inhibiting concentration) was measured after 3-4 days of culture.

HCC1806 = test: Cell viability (CellTiter-Glo), HCC1806; conditions: Homo sapiens; HCC1806 cell line, 3-4 days of culture
Experimental: as §1
Cell line HCC1806 (ATCC, No. CRL-2335) was cultured in 10% fetal bovine serum-containing RPMI1640 medium (+P/S).
as §2

NCI-H2081 = test: Cell viability (CellTiter-Glo), NCI-H2081; conditions: Homo sapiens; NCI-H2081 cell line, 3-4 days of culture
Experimental: as §1
Cell line NCI-H2081 (ATCC, No. CRL-5920) was cultured in 5% fetal bovine serum-containing HITES medium (+P/S).
as §2

OCI-AML-3 = test: Cell viability (CellTiter-Glo), OCI-AML-3; conditions: Homo sapiens; OCI-AML-3 cell line, 3-4 days of culture
Experimental: as §1
Cell line OCI-AML-3 (DSMZ, No. ACC-582) was cultured in 20% fetal bovine serum-containing RPMI1640 medium (+P/S).
as §2

With CCc1n(CC(=O)O[C@@H]2C[C@H](C)CC[C@H]2C(C)C)c2ccccc2[n+]1C.[Cl-] [Gboxin] the IC50 (U-251 MG) was 16.7 µM, the IC50 (HCC1806) was 3.18 µM and the IC50 (NCI-H2081) was 13.9 µM. For the same compound, the IC50 (OCI-AML-3) was 1.46 µM.
